Laboratory results published in PubChem BioAssay AID248 (DTP/NCI, 2004).
Where “and” joins values, the source holds several entries; their conditions need not be identical. Equal entries are not always repeated. Inconclusive results and toxic doses are left out. Rule as the data show it: active = T/C of 150% or more; inactive = T/C below 125%.

System: L1210 leukemia ip in BDF1 mice, survival T/C
Experiment: NCI In Vivo Anticancer Drug Screen. Data for tumor model L1210 Leukemia (intraperitoneal) in B6D2F1 (BDF1) mice
Conditions: endpoint: mean survival time, higher = longer survival
In short: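 Each compound was tested against a transplantable tumor grown in mice. The endpoint was survival, with treated animals benchmarked against vehicle controls as a simple ratio.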

[1] = dose: 100.0 mg/kg/injection, schedule: Q01DX009 (ip), vehicle: Klucel (hydroxypropylcellulose) (HPC)
[2] = dose: 200.0 mg/kg/injection, schedule: Q01DX009 (ip), vehicle: Klucel (hydroxypropylcellulose) (HPC)

Measured: T/C

CC12CCC(C(Br)C1=O)C2(C)CS(=O)(=O)O (stereo not given)
inactive: dose: 100.0 mg/kg/injection, schedule: Q01DX001 (ip), vehicle: saline 104 % of control and 101 % of control | dose: 100.0 mg/kg/injection, schedule: Q01DX009 (ip), vehicle: saline 89 % of control | dose: 100.0 mg/kg/injection, schedule: Q04DX003 (ip), vehicle: saline 95 % of control | dose: 200.0 mg/kg/injection, schedule: Q01DX001 (ip), vehicle: saline 93 % of control and 104 % of control | dose: 200.0 mg/kg/injection, schedule: Q01DX009 (ip), vehicle: saline 97 % of control | dose: 200.0 mg/kg/injection, schedule: Q04DX003 (ip), vehicle: saline 97 % of control | dose: 400.0 mg/kg/injection, schedule: Q01DX001 (ip), vehicle: saline 104 % of control | dose: 400.0 mg/kg/injection, schedule: Q01DX009 (ip), vehicle: saline 92 % of control | dose: 400.0 mg/kg/injection, schedule: Q04DX003 (ip), vehicle: saline 95 % of control

CC12CCC3c4ccc(O)cc4CCC3C1CCC2=O (stereo not given)
inactive: dose: 100.0 mg/kg/injection, schedule: Q01DX001 (sc), vehicle: steriod suspending solution 92 % of control | dose: 200.0 mg/kg/injection, schedule: Q01DX001 (sc), vehicle: steriod suspending solution 92 % of control | dose: 400.0 mg/kg/injection, schedule: Q01DX001 (sc), vehicle: steriod suspending solution 86 % of control

CC(=O)N1C(=O)c2ccccc2C1=O
inactive: dose: 100.0 mg/kg/injection, schedule: Q01DX001 (ip), vehicle: Klucel (hydroxypropylcellulose) (HPC) 95 % of control | [1] 93 % of control | dose: 200.0 mg/kg/injection, schedule: Q01DX001 (ip), vehicle: Klucel (hydroxypropylcellulose) (HPC) 92 % of control | [2] 93 % of control | dose: 400.0 mg/kg/injection, schedule: Q01DX001 (ip), vehicle: Klucel (hydroxypropylcellulose) (HPC) 92 % of control | dose: 400.0 mg/kg/injection, schedule: Q01DX009 (ip), vehicle: Klucel (hydroxypropylcellulose) (HPC) 90 % of control

O=Cc1cc(Cl)ccc1O
inactive: [1] 108 % of control | [2] 102 % of control

Cc1ccc([As+](c2ccccc2)(c2ccccc2)c2ccccc2)cc1
inactive: dose: 5.0 mg/kg/injection, schedule: Q01DX001 (ip), vehicle: saline 101 % of control | dose: 10.0 mg/kg/injection, schedule: Q01DX001 (ip), vehicle: saline 95 % of control | dose: 20.0 mg/kg/injection, schedule: Q01DX001 (ip), vehicle: saline 96 % of control

CCC(=O)NC(N)=S
inactive: dose: 25.0 mg/kg/injection, schedule: Q01DX009 (ip), vehicle: Klucel (hydroxypropylcellulose) (HPC) 96 % of control | dose: 50.0 mg/kg/injection, schedule: Q01DX009 (ip), vehicle: Klucel (hydroxypropylcellulose) (HPC) 94 % of control
